Results from PMC5431086, “The Rational Design of Therapeutic Peptides for Aminopeptidase N using a Substrate-Based Approach” (Scientific Reports, 2017).
Starred links: 1 amine or outer side, 2 acyl side, 3 side chain; linkers in the order of their positions; H or OH if unused. Positions of bridges follow the written chain, without caps; N, C: chain ends. Non-standard residues stand in square brackets, D forms with d. Residues, ends and D or L forms follow the SMILES beside them. No end group written: not given here. *: point of attachment. Suc = O=C(CCC(=O)[*:2])[*:1]; Nle = CCCC[C@H](N)C(=O)O; Cbz = O=C(OCc1ccccc1)*; For = O=C*

target: T1, hAPN (aminopeptidase N) (Homo sapiens, UniProt P15144); test: Inhibition of cleavage of fluorogenic alanine substrate (H-Ala-AMC) by APN; format: biochemical; conditions: 0.1 μM APN, 100 μM H-Ala-AMC, pH 7.2, 37 °C, triplicate
T1 construct: human APN ecdomain (residues 66–967) were expressed and purified as previously described; honeybee-melittin signal peptide (N); His6 (C); made in house; host or cells: insect cells
Procedure: Five-residue long peptides containing P1–P4′ residues from primary cleavages in the library were synthesized and tested for their ability to prevent the cleavage of a fluorogenic alanine substrate by hAPN.
The peptides used in this study were custom synthesized by AAPPTEC of Louisville, KY using traditional Fmoc solid-phase peptide synthesis. All of the peptides were purified and characterized by AAPPTEC. […] Inhibition assays were performed in triplicate in a 100 mM Tris pH 7.2, Brij 35 0.0002% w/v assay buffer at 37 °C with 0.1 μM APN and 100 μM H-Ala-AMC (fluorophore). Values were recorded by Infinite pro plate reader every 2 minutes for 30 minutes with laser parameters set for excitation at 355 nm and emission at 460 nm.

T1 sequence (P15144 66-967): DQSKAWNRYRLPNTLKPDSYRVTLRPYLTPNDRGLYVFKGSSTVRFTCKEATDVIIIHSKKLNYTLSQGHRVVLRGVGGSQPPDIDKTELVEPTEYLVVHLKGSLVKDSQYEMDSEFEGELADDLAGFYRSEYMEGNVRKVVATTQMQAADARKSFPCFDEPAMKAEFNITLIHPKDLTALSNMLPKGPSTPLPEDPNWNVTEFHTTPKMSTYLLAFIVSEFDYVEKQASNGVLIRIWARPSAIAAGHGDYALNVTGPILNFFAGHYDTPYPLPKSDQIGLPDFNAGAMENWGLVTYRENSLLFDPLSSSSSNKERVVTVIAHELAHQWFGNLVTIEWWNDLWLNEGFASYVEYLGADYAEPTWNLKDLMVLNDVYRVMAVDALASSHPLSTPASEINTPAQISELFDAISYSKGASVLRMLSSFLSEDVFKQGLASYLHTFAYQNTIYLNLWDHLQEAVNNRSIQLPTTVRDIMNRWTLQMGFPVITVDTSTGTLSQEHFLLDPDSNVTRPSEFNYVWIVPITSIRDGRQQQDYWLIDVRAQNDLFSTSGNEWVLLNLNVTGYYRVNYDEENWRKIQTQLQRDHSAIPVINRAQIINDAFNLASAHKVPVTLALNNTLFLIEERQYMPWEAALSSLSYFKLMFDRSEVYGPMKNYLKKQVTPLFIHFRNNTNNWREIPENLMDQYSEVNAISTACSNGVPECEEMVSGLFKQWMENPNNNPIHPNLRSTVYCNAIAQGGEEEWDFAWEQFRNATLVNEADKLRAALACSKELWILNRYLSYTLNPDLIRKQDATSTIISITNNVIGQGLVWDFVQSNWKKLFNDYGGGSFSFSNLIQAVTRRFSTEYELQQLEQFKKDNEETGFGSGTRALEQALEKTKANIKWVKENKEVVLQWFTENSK

| IC50 [µM] | Molecule |
| --- | --- |
| > 500 | ADARK [ADARK] |
| > 500 | CCCC[C@H](N)C(=O)N[C@@H](CC(=O)O)C(=O)N[C@@H](CCC(N)=O)C(=O)N[C@H](C(=O)N[C@@H](Cc1ccc(O)cc1)C(=O)O)[C@@H](C)CC [nDQIY] (H-[Nle]DQIY-OH) |
| 6.5 ± 0.5 | CCCC[C@H](N)C(=O)N[C@@H](Cc1c[nH]cn1)C(=O)N[C@@H](CO)C(=O)N1CCC[C@H]1C(=O)N[C@@H](Cc1c[nH]c2ccccc12)C(=O)O [nHSPW] (H-[Nle]HSPW-OH) |

same assay, conditions: APN; Ki from IC50 by Cheng-Prusoff equation; 0.1 μM APN, 100 μM H-Ala-AMC

| Ki [µM] | Molecule |
| --- | --- |
| 121 ± 21.4 | CC(C)C[C@@H]1NC(=O)[C@@H](N)CSSC[C@@H](C(=O)O)NC(=O)[C@@H]2CCCN2C(=O)[C@H](CO)NC(=O)[C@H](Cc2c[nH]cn2)NC1=O [cyc-LHSP] (H-CLHSPC-OH; disulfide 1-6) |
| > 500 | CC(C)C[C@H](NC=O)C(=O)N[C@@H](Cc1c[nH]cn1)C(=O)N[C@@H](CO)C(=O)N1CCC[C@H]1C(=O)N[C@@H](Cc1c[nH]c2ccccc12)C(=O)O [For-LHSPW] (For-LHSPW-OH) |
| > 500 | CC(C)C[C@@H]1NC(=O)[C@@H](N)CSSC[C@@H](C(=O)O)NC(=O)[C@H](CO)NC(=O)[C@H](Cc2c[nH]cn2)NC1=O [cyc-LHS] (H-CLHSC-OH; disulfide 1-5) |
| > 500 | CC(=O)N[C@@H](Cc1c[nH]cn1)C(=O)N[C@@H](CO)C(=O)N1CCC[C@H]1C(=O)N[C@@H](Cc1c[nH]c2ccccc12)C(=O)O [Ac-HSPW] (Ac-HSPW-OH; C-terminus assumed) |
| > 500 | N[C@H]1CSSC[C@@H](C(=O)O)NC(=O)[C@H](Cc2c[nH]c3ccccc23)NC(=O)[C@@H]2CCCN2C(=O)[C@H](CO)NC(=O)[C@H](Cc2c[nH]cn2)NC(=O)[C@@H]2CCCN2C1=O [cyc-PHSPW, Cys-PHSPW-Cys] (H-CPHSPWC-OH; disulfide 1-7) |
| > 500 | C[C@@H]1NC(=O)[C@H](CC(=O)O)NC(=O)[C@H](C)NC(=O)[C@@H](N)CSSC[C@@H](C(=O)O)NC(=O)[C@H](CCCCN)NC(=O)[C@H](CCCNC(=N)N)NC1=O [cyc-ADARK] (H-CADARKC-OH; disulfide 1-7) |
| > 500 | CC(C)C[C@H](NC(=O)CCC(=O)O)C(=O)N[C@@H](Cc1c[nH]cn1)C(=O)N[C@@H](CO)C(=O)N1CCC[C@H]1C(=O)N[C@@H](Cc1c[nH]c2ccccc12)C(=O)O [Suc-LHSPW] (Suc-LHSPW-OH) |
| > 500 | Ac-LHSPW [Ac-LHSPW] |
| > 500 | CC(C)C[C@H](NC(=O)OCc1ccccc1)C(=O)N[C@@H](Cc1c[nH]cn1)C(=O)N[C@@H](CO)C(=O)N1CCC[C@H]1C(=O)N[C@@H](Cc1c[nH]c2ccccc12)C(=O)O [Cbz-LHSPW] (Cbz-LHSPW-OH) |
| > 500 | O=CN[C@@H](Cc1c[nH]cn1)C(=O)N[C@@H](CO)C(=O)N1CCC[C@H]1C(=O)N[C@@H](Cc1c[nH]c2ccccc12)C(=O)O [For-HSPW] (For-HSPW-OH; C-terminus assumed) |
| > 500 | O=C(O)CCC(=O)N[C@@H](Cc1c[nH]cn1)C(=O)N[C@@H](CO)C(=O)N1CCC[C@H]1C(=O)N[C@@H](Cc1c[nH]c2ccccc12)C(=O)O [Suc-HSPW] (Suc-HSPW-OH; C-terminus assumed) |
| > 500 | O=C(N[C@@H](Cc1c[nH]cn1)C(=O)N[C@@H](CO)C(=O)N1CCC[C@H]1C(=O)N[C@@H](Cc1c[nH]c2ccccc12)C(=O)O)OCc1ccccc1 [Cbz-HSPW] (Cbz-HSPW-OH; C-terminus assumed) |
| > 500 | C[C@@H]1NC(=O)[C@@H](N)CSSC[C@@H](C(=O)O)NC(=O)[C@H](Cc2c[nH]c3ccccc23)NC(=O)[C@@H]2CCCN2C(=O)[C@H](CO)NC(=O)[C@H](Cc2c[nH]cn2)NC1=O [cyc-AHSPW, Cys-AHSPW-Cys] (H-CAHSPWC-OH; disulfide 1-7) |
| > 500 | CC(C)C[C@@H]1NC(=O)[C@@H](N)CSSC[C@@H](C(=O)O)NC(=O)[C@H](Cc2ccccc2)NC(=O)[C@H]([C@@H](C)O)NC(=O)[C@H](CO)NC(=O)[C@H](CC(=O)O)NC1=O [cyc-LDSTF] (H-CLDSTFC-OH; disulfide 1-7) |

| Molecule | Ki [µM] |
| --- | --- |
| CC(C)C[C@@H]1NC(=O)[C@@H](N)CSSC[C@@H](C(=O)O)NC(=O)[C@H](Cc2c[nH]c3ccccc23)NC(=O)[C@@H]2CCCN2C(=O)[C@H](CO)NC(=O)[C@H](Cc2c[nH]cn2)NC1=O [cyc-LHSPW, Cys-LHSPW-Cys] (H-CLHSPWC-OH; disulfide 1-7) | 24.7 ± 1.4 |

target: aminopeptidase A (Homo sapiens, UniProt Q07075); test: Protease selectivity panel, aminopeptidase A; format: biochemical; conditions: not given
Procedure: (§1) Next, the specificity of the lead peptide inhibitor cyc-LHSPW was tested against a panel of cancer-associated proteases with wide-ranging substrate specificities (Fig. 5A). APN was the only protease inhibited by cyc-LHSPW with chymotrypsin, trypsin, PSA, KLK7, aminopeptidase A, and the exopeptidase FAP all having Ki values above 100 μM. Having assessed selectivity for purified APN, we next evaluated the ability of cyc-LHSPW to preferentially bind to cells that express surface APN using flow cytometry (Fig. 5B). […] The expression of cell surface-associated APN was examined in the androgen receptor negative neuroendocrine prostate cancer cell lines PC3 and DU145 using a commercially available antibody. […] The peptide was next tested on frozen PC3 and DU145 tumor xenografts sections.
(§2) Figure 5 Determining the specificity of cyc-LHSPW for APN. (A) The cyc-LHSPW peptide was specific inhibitor of APN when compared to a panel of proteases. (B) Fluorescence microscopy of frozen PC3 (left) and DU145 (right) xenograft sections with cyc-LHSPW-(Gly)4-FITC. Sections were incubated with 250 nM of cyc-LHSPW-(Gly)4-FITC overnight and then visualized. The merged fluoresence channels are cyc-LHSPW-(Gly)4-FITC (green) and nuclei (DAPI, blue). (C) Analysis of APN inhibitor binding to PC3 (left) and DU145 cells (right) by flow cytometry. […]

Chain of aminopeptidase A (Q07075 whole entry, species assumed): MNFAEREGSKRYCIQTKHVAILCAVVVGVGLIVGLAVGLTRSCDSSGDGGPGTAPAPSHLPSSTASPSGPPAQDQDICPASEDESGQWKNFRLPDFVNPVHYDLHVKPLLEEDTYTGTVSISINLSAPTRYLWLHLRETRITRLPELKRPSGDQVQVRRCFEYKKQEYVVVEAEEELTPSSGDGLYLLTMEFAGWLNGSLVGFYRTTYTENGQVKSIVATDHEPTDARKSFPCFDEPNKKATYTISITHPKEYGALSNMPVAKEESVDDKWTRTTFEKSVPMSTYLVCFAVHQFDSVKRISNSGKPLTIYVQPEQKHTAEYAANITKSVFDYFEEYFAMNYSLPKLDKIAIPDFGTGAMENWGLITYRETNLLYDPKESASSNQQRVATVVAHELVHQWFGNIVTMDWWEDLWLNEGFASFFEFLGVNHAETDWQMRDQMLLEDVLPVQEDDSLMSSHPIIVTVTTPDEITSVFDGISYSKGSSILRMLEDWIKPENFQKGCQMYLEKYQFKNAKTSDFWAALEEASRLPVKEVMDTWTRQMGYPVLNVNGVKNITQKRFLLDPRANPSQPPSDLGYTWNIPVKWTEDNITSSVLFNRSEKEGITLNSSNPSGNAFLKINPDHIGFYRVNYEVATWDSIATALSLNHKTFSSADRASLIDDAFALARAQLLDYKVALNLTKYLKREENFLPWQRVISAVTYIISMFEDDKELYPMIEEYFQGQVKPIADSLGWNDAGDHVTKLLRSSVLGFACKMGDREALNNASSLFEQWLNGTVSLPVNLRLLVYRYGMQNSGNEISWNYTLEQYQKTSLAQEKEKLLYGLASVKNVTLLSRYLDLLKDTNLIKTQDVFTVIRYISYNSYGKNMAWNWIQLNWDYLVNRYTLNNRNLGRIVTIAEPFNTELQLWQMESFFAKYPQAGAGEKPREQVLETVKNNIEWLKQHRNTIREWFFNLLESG

| Molecule | Ki [µM] |
| --- | --- |
| CC(C)C[C@@H]1NC(=O)[C@@H](N)CSSC[C@@H](C(=O)O)NC(=O)[C@H](Cc2c[nH]c3ccccc23)NC(=O)[C@@H]2CCCN2C(=O)[C@H](CO)NC(=O)[C@H](Cc2c[nH]cn2)NC1=O [cyc-LHSPW, Cys-LHSPW-Cys] (H-CLHSPWC-OH; disulfide 1-7) | > 100 |

target: T2, FAP (Homo sapiens, UniProt Q12884); test: Protease selectivity panel, FAP; format: biochemical; conditions: not given
T2 sequence (Q12884 1-760): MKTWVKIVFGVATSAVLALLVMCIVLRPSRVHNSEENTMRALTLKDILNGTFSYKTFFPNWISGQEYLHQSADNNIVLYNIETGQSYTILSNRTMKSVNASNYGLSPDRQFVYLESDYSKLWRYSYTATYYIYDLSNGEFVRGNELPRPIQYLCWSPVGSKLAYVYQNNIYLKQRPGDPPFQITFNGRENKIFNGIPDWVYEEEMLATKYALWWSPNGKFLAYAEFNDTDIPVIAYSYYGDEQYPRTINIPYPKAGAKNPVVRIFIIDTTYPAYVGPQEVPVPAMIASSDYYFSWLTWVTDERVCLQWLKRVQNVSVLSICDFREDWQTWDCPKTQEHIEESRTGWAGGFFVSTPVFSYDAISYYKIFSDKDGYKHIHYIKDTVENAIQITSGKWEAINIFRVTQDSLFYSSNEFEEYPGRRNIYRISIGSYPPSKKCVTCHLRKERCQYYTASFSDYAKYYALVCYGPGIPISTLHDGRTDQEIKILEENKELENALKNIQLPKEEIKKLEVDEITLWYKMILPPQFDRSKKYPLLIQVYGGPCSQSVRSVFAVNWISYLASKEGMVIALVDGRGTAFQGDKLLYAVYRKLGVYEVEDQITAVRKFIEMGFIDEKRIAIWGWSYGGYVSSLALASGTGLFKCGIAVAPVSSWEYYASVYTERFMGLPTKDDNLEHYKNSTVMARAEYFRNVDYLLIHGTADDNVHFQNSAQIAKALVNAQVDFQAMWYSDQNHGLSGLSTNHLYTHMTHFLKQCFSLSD
Procedure: as §1, §2

| Molecule | Ki [µM] |
| --- | --- |
| CC(C)C[C@@H]1NC(=O)[C@@H](N)CSSC[C@@H](C(=O)O)NC(=O)[C@H](Cc2c[nH]c3ccccc23)NC(=O)[C@@H]2CCCN2C(=O)[C@H](CO)NC(=O)[C@H](Cc2c[nH]cn2)NC1=O [cyc-LHSPW, Cys-LHSPW-Cys] (H-CLHSPWC-OH; disulfide 1-7) | > 100 |

target: PSA (Homo sapiens, UniProt P07288); test: Protease selectivity panel, PSA; format: biochemical; conditions: not given
Procedure: as §1, §2

Chain of PSA (P07288 25-261): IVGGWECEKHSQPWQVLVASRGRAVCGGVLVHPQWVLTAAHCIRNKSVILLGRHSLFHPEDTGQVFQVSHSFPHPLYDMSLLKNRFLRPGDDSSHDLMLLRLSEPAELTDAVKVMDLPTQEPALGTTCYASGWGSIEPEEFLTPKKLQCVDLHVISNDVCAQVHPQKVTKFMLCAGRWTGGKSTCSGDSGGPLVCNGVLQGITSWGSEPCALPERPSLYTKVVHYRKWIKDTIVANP

| Molecule | Ki [µM] |
| --- | --- |
| CC(C)C[C@@H]1NC(=O)[C@@H](N)CSSC[C@@H](C(=O)O)NC(=O)[C@H](Cc2c[nH]c3ccccc23)NC(=O)[C@@H]2CCCN2C(=O)[C@H](CO)NC(=O)[C@H](Cc2c[nH]cn2)NC1=O [cyc-LHSPW, Cys-LHSPW-Cys] (H-CLHSPWC-OH; disulfide 1-7) | > 100 |

target: KLK7 (Homo sapiens, UniProt P49862); test: Protease selectivity panel, KLK7; format: biochemical; conditions: not given
Procedure: as §1, §2

Chain of KLK7 (P49862 30-253, species assumed): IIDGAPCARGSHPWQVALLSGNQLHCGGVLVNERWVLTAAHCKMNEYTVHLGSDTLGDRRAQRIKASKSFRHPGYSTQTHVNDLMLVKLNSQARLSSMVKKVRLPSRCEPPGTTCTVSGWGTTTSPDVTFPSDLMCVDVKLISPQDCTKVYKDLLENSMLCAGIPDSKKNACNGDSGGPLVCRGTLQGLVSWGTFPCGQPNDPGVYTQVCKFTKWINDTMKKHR

| Molecule | Ki [µM] |
| --- | --- |
| CC(C)C[C@@H]1NC(=O)[C@@H](N)CSSC[C@@H](C(=O)O)NC(=O)[C@H](Cc2c[nH]c3ccccc23)NC(=O)[C@@H]2CCCN2C(=O)[C@H](CO)NC(=O)[C@H](Cc2c[nH]cn2)NC1=O [cyc-LHSPW, Cys-LHSPW-Cys] (H-CLHSPWC-OH; disulfide 1-7) | > 100 |

tested on: not listed separately; test: Toxicity study, i.v. administration; format: in vivo; conditions: 40 mg/kg three time a week for four weeks (t.i.w. x4), mice
Procedure: The potential therapeutic efficacy of cyc-LHSPW was next tested in vitro using the PC3 and DU145 cell lines. […] Prior to in vivo therapeutic efficacy studies, a toxicity study was performed with the i.v. administration of cyc-LHSPW. […] Mice bearing established PC3 and DU145 xenografts were treated systemically via tail vein injection with 40 mg/kg of the tumor homing APN peptide cyc-NGR or the cyc-LHSPW peptide t.i.w. x4 (Fig. 6B). […] This therapeutic effect persisted to the end of the study with the cyc-LHSPW-treated mice having a tumor volume of 309.3 ± 92.7 mm^3 at day 35. […] PC3 tumors were removed and stained for the cellular proliferation marker Ki67.

| Molecule | tolerability |
| --- | --- |
| CC(C)C[C@@H]1NC(=O)[C@@H](N)CSSC[C@@H](C(=O)O)NC(=O)[C@H](Cc2c[nH]c3ccccc23)NC(=O)[C@@H]2CCCN2C(=O)[C@H](CO)NC(=O)[C@H](Cc2c[nH]cn2)NC1=O [cyc-LHSPW, Cys-LHSPW-Cys] (H-CLHSPWC-OH; disulfide 1-7) | well tolerated, i.e. no signs of morbidity |

same assay, conditions: multiple doses of 100 mg/kg, mice

| Molecule | tolerability |
| --- | --- |
| CC(C)C[C@@H]1NC(=O)[C@@H](N)CSSC[C@@H](C(=O)O)NC(=O)[C@H](Cc2c[nH]c3ccccc23)NC(=O)[C@@H]2CCCN2C(=O)[C@H](CO)NC(=O)[C@H](Cc2c[nH]cn2)NC1=O [cyc-LHSPW, Cys-LHSPW-Cys] (H-CLHSPWC-OH; disulfide 1-7) | resulted in cachexia |

same assay, conditions: single high dose of 100 mg/kg, mice

| Molecule | tolerability |
| --- | --- |
| CC(C)C[C@@H]1NC(=O)[C@@H](N)CSSC[C@@H](C(=O)O)NC(=O)[C@H](Cc2c[nH]c3ccccc23)NC(=O)[C@@H]2CCCN2C(=O)[C@H](CO)NC(=O)[C@H](Cc2c[nH]cn2)NC1=O [cyc-LHSPW, Cys-LHSPW-Cys] (H-CLHSPWC-OH; disulfide 1-7) | well tolerated |
